Assay results as given in ChEMBL document CHEMBL1201862, “PubChem BioAssay data set” (2004).
Calls of active or inactive are those of the source.

Key:
[1] = biological target: T1, Polyadenylate-binding protein 1 (Homo sapiens, UniProt P11940); test: PABP1 MLLE–PAM2 interaction inhibitors, dose response, miRNA deadenylation inhibitor project, biochemical, fluorescence polarization, Cy5-PAM2 peptide, secondary (AID 602260); assay type: functional; settings: read-out: IC50_Mean
[2] = biological target: T1, Polyadenylate-binding protein 1; test: PABP1 MLLE–PAM2 binding inhibitor potency, dose response, biochemical, fluorescence polarization, FITC-PAM2 peptide (AID 602259); assay type: functional; settings: read-out: IC50_Mean
[3] = inhibitors of HIV Env-driven cell fusion, dose response, cherry-pick (AID 652057); assay type: functional, cell-based
[4] = ZM109 Env clade C HIV-1 fusion inhibitors, dose response, HeLa effector, CEM target cells, luciferase, cherry-pick (AID 652058); assay type: functional, cell-based
[5] = inhibitors of clade B AD8 Env fusion, dose response, cell-based, cherry-pick (AID 652062); assay type: functional;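 also: luciferase signal from cell-cell fusion driven by HIV-1 clade B AD8 Env; potency is for inhibitors of fusion seen as a drop in luminescence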
[6] = off-target signal loss in HeLa-CEM21 co-culture – HeLa F-luc CTL cells, cherry-picked, counter-screen for HIV-1 Env fusion inhibitor project, dose response (AID 652040); assay type: functional, cell-based;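 also: potency for signal decrease marking cytotoxic or nonspecific inhibition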

T1 sequence (P11940 whole entry): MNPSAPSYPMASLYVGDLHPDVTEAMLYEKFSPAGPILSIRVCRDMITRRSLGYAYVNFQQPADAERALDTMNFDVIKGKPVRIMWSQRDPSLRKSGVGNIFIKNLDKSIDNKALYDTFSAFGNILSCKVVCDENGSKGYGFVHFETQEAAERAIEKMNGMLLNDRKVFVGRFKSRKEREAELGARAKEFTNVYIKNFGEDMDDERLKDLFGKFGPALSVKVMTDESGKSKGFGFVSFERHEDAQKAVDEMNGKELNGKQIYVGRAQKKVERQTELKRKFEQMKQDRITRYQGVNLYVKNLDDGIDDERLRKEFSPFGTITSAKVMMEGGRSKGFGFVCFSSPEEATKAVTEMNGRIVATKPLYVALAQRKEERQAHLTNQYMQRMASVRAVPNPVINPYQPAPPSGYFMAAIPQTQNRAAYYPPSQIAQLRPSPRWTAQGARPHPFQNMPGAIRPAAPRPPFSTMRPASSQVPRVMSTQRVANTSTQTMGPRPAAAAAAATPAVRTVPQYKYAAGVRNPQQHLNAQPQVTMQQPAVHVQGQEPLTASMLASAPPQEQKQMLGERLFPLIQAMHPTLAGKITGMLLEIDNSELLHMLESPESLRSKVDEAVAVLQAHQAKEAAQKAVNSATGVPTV

IC50 [1]	IC50 [2]	SMILES	AC50 [3]	AC50 [4]	AC50 [5]	AC50 [6]
> 66 µM (inactive)	> 66 µM (inactive)	CCCCNC(=O)c1sc(=S)n(-c2ccccc2OC)c1N	–	–	–	–
–	–	C[C@H]1CN([C@@H](C)CO)C(=O)Cc2cc(NC(=O)Nc3ccccc3)ccc2O[C@H]1CN(C)S(=O)(=O)c1ccccc1	5.16 µM (active)	4.49 µM (active)	5.2 µM (active)	–
> 66 µM (inactive)	> 66 µM (inactive)	COc1ccc(C(=O)CCN2CCC(C)CC2)cc1	–	–	–	–
> 66 µM (inactive)	> 66 µM (inactive)	CCCn1c(N)c(C(=S)NC(=O)C2CC2)c(=O)n(C)c1=O	–	–	–	–
> 66 µM (inactive)	> 66 µM (inactive)	CCCCC1NC(C(=O)O)CS1 (stereo unspecified)	–	–	–	–
–	–	CCN1C(=O)[C@H]2[C@H]3CN=C(SCc4ccc(Cl)cc4)N3[C@@](CC)(C(=O)OC)[C@H]2C1=O	3.34 µM (active)	3.37 µM (active)	5.43 µM (active)	3.59 µM (active)
–	–	CC[C@@]1(C(=O)OC)N[C@H](CN(C)C(=O)Nc2ccc(C(F)(F)F)cc2)[C@@H]2C(=O)N(Cc3ccccc3)C(=O)[C@@H]21	0.336 µM (active)	0.604 µM (active)	1.21 µM (active)	0.74 µM (active)
> 66 µM (inactive)	> 66 µM (inactive)	CCOCC(=O)Nc1nnc(COc2ccc(Cl)cc2)s1	–	–	–	–
–	–	Cn1c(O)nc2cc3ccccc3cc21	1.46 µM (active)	53.3 µM (active)	4.99 µM (active)	0.717 µM (active)
–	–	CC(C)(C)N1C(=O)[C@H]2[C@@H](c3ccc(Br)cc3)N3C(=O)N(c4cccc(Cl)c4)C(=O)[C@@]3(C)[C@H]2C1=O	0.464 µM (active)	0.542 µM (active)	3.2 µM (active)	0.843 µM (active)

SMILES	IC50 [1]	IC50 [2]	AC50 [3]	AC50 [4]	AC50 [5]	AC50 [6]
CCOP(=O)(Cc1cc(C(C)=O)c(C)o1)OCC	> 66 µM (inactive)	> 66 µM (inactive)	–	–	–	–
